Here are results for seven molecules from ChEMBL document CHEMBL5380873, “Discovery of Potent Tetrazole Free Fatty Acid Receptor 2 Antagonists” (J Med Chem, 2023).

In data set [1] the target is T1, Free fatty acid receptor 2 (Homo sapiens) (UniProt O15552).
T1 sequence (whole entry): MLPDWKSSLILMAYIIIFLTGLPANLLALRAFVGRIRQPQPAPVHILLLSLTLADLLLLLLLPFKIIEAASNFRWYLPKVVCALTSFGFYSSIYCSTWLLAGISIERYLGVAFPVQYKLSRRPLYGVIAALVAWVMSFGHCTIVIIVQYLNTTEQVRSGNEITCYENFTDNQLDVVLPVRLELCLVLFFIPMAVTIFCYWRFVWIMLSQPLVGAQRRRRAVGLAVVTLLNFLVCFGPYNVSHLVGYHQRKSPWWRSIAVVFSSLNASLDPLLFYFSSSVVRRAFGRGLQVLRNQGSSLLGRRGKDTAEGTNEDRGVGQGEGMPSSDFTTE
The data set can be described thus: (§1) Antagonist activity at human FFA2 expressed in Flp-In-T-REx-293 cells co-expressing eYFP assessed as inhibition of [35S]GTPgammaS incorporation preincubated for 15 mins followed by [35S]GTPgammaS addition and measured after 60 min by liquid scintillation spectroscopic analysis. Format: functional, cell-based. The settings on record: time 75.0 min. (In general: GTPγS resists hydrolysis and so accumulates on activated G proteins.)

Data set [2] addresses T1, Free fatty acid receptor 2 (Homo sapiens). In words: (§2) Antagonist activity at human FFA2 expressed in Flp-In-T-REx-293 cells co-expressing eYFP assessed as inhibition of propionate-induced cAMP accumulation preincubated with compound for 20 mins followed by propionate addition and measured after 25 mins in the presence of forskolin by TR-FRET analysis. Format: functional, cell-based. The settings on record: time 45.0 min. (Cyclic AMP is a second messenger, typically raised through Gs and lowered through Gi signalling.)

Data set [3] is described as follows: Chemical stability of compound in PBS buffer at pH 7.4 measured after 10 days by HPLC analysis. Format: physicochemical. As to conditions: time 10 day, read-out: Stability.
The target in data set [4] is T2, Free fatty acid receptor 2 (Homo sapiens, UniProt O15552).
T2 sequence (O15552 whole entry): T1 sequence (whole entry)
In words: Inverse agonist activity at human GPR43 expressed in Glosensor cells assessed as increase in forskolin-induced cAMP level preincubated with compound for 5 mins followed by forskolin addition and measured after 15 mins by luminescence based analysis. Format: functional, cell-based.

The target in data set [5] is T1, Free fatty acid receptor 2 (Homo sapiens). The data set can be described thus: Potency index, ratio of CATPB pIC50 to test compound pIC50 for antagonist activity at human FFA2.
The target of data set [6] is T3, Free fatty acid receptor 3 (Homo sapiens) (UniProt O14843).
T3 sequence (whole entry): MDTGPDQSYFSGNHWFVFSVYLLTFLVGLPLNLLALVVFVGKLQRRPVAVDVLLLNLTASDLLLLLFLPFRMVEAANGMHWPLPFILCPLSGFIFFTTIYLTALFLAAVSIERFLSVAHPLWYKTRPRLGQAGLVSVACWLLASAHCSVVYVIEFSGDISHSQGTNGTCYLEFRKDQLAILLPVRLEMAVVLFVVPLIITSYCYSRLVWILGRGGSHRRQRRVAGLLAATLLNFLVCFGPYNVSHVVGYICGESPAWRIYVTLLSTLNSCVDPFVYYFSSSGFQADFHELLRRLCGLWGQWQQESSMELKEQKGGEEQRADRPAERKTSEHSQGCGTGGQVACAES
In words: Antagonist activity at human FFA3 expressed in Flp-In-T-REx-293 cells co-expressing eYFP assessed as inhibition of propionate-induced cAMP accumulation at 10 uM preincubated with compound for 20 mins followed by propionate addition and measured after 25 mins in the presence of forskolin by TR-FRET analysis. As to conditions: time 45.0 min. Format: functional, cell-based.

Data set [7] has as its system Neutrophil. In words: Inhibition of propionate-induced cell migration in human peripheral neutrophil at 0.4 to 1 uM preincubated with compound for 30 mins followed by propionate addition and measured after 1 hrs by ATPlite luminescence assay. Format: functional, cell-based. As to conditions: dose 0.4-1 µM, time 90.0 min. (Cellular ATP, detected with luciferase, serves as a proxy for viable cell number.)

For data set [8], the system named is Neutrophil. In words: Inhibition of propionate-induced respiratory burst in human peripheral neutrophil assessed as effect on luminol-induced chemiluminescence at 0.4 to 1 uM preincubated with compound for 30 mins followed by propionate addition and measured immediately by microplate reader based analysis. Format: functional, cell-based. The settings on record: dose 0.4-1 µM.

For data set [9], the system named is Neutrophil. In words: Inhibition of fMLP-induced cell migration in human peripheral neutrophil at 10 uM. Format: functional, cell-based.
Data set [10] has as its system Neutrophil. The data set can be described thus: Inhibition of fMLP-induced respiratory burst in human peripheral neutrophil at 10 uM. Format: functional, cell-based.
Data set [11] is described as follows: Inhibition of propionate-induced respiratory burst in human peripheral neutrophil assessed as effect on luminol-amplifies chemiluminescence by measuring fold change at 0.4 to 1 uM preincubated with compound for 30 mins followed by propionate addition and measured immediately by microplate reader based analysis relative to CATPB. The settings on record: dose 0.4-1 µM, 0.5 h. Format: functional.

Data set [12] has as its target T2, Free fatty acid receptor 2. The data set is described as §1. Format: functional, cell-based.
The target in data set [13] is T2, Free fatty acid receptor 2. The data set is described as §2. Format: functional, cell-based.

Active and inactive are the calls of the source. The rule behind the calls is not given here.

With `O=C(Cc1cccc(-c2nnn[nH]2)c1)N[C@@H](Cc1ccc(C(F)(F)F)cc1)Cc1nnn[nH]1`, the result in data set [1] and in [2] was inactive.
As for `O=C(Cc1cncc(Br)c1)N[C@@H](Cc1ccc(C(F)(F)F)cc1)Cc1nnn[nH]1`, the remaining at 240 h in [3] was > 95%.
Consider `CC1=C(C(=O)Nc2cc(C)cc(C)c2)C(c2ccc(N(C)C)cc2)NC(=O)N1` (stereo unspecified), for which the IC50 in data set [4] is ~10 µM.
For the molecule `Cc1cccc(CC(=O)N[C@@H](Cc2ccc(C(F)(F)F)cc2)Cc2nnn[nH]2)c1`, the Ratio pIC50 in data set [5] is > 10.
For `O=C(Cc1cnc[nH]1)N[C@@H](Cc1ccc(C(F)(F)F)cc1)Cc1nnn[nH]1`, the result in data set [1] and in data set [2] was inactive.
With `COc1cccc(CC(=O)N[C@@H](Cc2ccc(C(F)(F)F)cc2)Cc2nnn[nH]2)c1`, the remaining at 240 h in data set [3] was > 95%. In addition, the outcome in data set [6] was inactive. In addition, the inhibition result in data set [7] and in data set [8] was “Active” each time. Further, the inhibition entry in data set [9] and in [10] was “inactive” in each case. Besides, in data set [11], the “fold change (FC)” value amounted to 8.
Consider `N#Cc1cccc(CC(=O)N[C@@H](Cc2ccc(C(F)(F)F)cc2)Cc2nnn[nH]2)c1`, for which the negative-log IC50 (pIC50) in data set [12] and in data set [13] was > 5 each time.

By IC50 is commonly meant the concentration at which inhibition is half-maximal. One may read the pIC50 as the IC50 on a negative log10 scale, so that one unit is a factor of ten.
